Results from patent US6348477B1, “Anti-herpesvirus compounds and methods for identifying, making and using same” (Boehringer Ingelheim(Canada) Ltd., priority 1995, dated 2002).

Experiments:
[1] = target: T1, HSV-1 helicase-primase (Human herpesvirus 1, UniProt P10189+P10236); assay: HSV-1 DNA-dependent ATPase assay (inhibition of HSV-1 helicase-primase); format: biochemical; conditions: Group 1 Table 1
T1 construct: made in house; host or cells: Sf21 insect cells triply infected with recombinant baculoviruses
T1 sequence (P10189 whole entry): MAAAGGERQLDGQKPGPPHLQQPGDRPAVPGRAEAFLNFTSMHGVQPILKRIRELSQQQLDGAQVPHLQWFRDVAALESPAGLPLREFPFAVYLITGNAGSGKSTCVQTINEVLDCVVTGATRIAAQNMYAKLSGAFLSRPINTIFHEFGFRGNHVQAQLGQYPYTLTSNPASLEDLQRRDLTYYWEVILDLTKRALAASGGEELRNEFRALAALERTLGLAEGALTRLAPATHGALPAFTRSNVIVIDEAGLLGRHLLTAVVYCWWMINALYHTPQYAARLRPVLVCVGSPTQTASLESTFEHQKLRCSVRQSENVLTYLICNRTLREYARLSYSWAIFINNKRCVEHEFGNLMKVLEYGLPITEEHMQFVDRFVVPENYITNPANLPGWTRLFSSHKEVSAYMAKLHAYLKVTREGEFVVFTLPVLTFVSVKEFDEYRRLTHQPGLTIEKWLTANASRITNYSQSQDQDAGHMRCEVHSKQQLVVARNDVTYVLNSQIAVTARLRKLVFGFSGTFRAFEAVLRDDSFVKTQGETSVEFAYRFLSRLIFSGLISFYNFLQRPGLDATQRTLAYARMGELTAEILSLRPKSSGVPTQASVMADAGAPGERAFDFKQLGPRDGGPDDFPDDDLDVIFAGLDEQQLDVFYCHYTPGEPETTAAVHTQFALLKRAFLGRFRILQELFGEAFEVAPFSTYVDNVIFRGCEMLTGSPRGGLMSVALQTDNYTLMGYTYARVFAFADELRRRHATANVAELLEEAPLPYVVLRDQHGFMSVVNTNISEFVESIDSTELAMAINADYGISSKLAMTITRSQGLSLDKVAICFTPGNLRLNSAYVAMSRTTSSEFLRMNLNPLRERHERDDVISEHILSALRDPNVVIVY
T1 sequence (P10192 whole entry, further chain): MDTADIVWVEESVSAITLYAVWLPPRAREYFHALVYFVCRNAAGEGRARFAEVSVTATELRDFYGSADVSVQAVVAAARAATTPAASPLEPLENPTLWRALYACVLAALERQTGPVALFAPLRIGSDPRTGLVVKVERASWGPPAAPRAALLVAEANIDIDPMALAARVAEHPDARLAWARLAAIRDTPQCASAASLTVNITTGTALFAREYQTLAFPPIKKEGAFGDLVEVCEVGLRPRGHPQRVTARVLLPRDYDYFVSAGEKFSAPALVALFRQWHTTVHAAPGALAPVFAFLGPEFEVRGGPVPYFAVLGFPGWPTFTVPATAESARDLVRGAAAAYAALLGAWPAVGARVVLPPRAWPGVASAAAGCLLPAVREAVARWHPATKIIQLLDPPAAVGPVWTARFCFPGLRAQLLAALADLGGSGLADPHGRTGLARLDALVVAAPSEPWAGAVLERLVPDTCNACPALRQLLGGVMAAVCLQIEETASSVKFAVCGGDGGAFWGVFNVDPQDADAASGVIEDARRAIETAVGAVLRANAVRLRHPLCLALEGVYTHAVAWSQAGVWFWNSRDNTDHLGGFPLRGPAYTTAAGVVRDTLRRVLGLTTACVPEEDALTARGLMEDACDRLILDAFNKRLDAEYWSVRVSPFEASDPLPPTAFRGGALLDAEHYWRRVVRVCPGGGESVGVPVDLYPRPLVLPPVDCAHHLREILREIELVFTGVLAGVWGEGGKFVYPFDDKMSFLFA
T1 sequence (P10236 whole entry): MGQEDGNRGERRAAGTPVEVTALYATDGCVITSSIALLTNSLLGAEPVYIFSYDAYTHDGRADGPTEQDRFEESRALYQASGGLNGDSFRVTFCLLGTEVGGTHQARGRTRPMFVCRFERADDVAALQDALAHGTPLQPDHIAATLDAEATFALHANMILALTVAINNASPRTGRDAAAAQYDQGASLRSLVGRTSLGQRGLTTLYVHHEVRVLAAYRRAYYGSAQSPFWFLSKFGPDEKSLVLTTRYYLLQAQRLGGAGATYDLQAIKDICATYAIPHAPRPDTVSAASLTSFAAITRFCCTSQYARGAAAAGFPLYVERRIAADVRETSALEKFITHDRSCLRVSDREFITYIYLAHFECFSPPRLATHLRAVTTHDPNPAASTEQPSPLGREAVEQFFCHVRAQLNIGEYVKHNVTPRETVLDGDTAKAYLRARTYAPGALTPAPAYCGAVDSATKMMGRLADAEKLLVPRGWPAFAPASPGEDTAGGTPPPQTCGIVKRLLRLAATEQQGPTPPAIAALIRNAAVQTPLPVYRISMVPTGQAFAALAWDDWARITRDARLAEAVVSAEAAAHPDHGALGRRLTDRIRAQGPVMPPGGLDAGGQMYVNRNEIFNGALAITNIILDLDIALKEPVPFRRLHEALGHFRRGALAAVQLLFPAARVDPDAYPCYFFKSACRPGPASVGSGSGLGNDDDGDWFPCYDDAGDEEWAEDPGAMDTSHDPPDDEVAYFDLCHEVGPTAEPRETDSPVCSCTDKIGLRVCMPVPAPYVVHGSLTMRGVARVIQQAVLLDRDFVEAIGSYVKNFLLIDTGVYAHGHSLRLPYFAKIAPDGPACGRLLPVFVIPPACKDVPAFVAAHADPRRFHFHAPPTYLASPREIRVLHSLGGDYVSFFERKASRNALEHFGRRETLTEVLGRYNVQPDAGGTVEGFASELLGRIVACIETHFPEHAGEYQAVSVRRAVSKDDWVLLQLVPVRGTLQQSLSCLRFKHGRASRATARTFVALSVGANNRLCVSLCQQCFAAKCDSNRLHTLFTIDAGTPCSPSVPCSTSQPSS
From the text: A) HSV-1 DNA-Dependent ATP Assay (an in Vitro Assay Based on the Inhibition of HSV-1 Helicase-primase).
a) Preparation of enzyme: HSV-1 helicase-primase holoenzyme was produced in triply infected Sf21 cells using recombinant baculoviruses expressing the UL5, UL8 and UL52 helicase-primase subunits, as described by S. Dracheva et al., J. Biol. Chem. 1995, 270, 14148. The crude enzyme was purified by ammonium sulfate precipitation, Source 15Q® chromatography and Sephacryl® S-300 HR gel filtration (both purification systems can be obtained from Pharmacia Biotech Inc., Montreal, Quebec, Canada), see S. Dracheva et al., supra.
b) Assay: The DNA-dependent ATPase assay, described by J. J. Crute et al., Nucleic Acids Res. 1988, 16, 6585, was modified and used to evaluate the capability of the compounds of Group 1-formula 1 to inhibit HSV-1 helicase-primase activity. The reaction mixtures (80 μL each) contained 40 mM 4-(2-hydroxyethyl)-1-piperazineethanesulfonic acid (HEPES, pH 7.5), 10% (v/v) glycerol, 5.5 mM MgCl2, 1 mM DL-dithiothreitol (DTT), 50 μg/mL acetylated bovine serum albumin, 3.3% (v/v) DMSO, 4 mM ATP, 25 μM single-stranded M13 DNA hybridized to double-tailed 68-mer oligonucleotide and 3 μg/mL HSV-1 helicase-primase. After incubation for 20 min at 34°, formation of inorganic phosphate from hydrolysis of ATP was monitored spectrophotometrically at 650 nm using acidic ammonium molybdate/malachite green reagent, P. A. Lanzetta et al., Anal. Biochem. 1979, 100, 95. DNA-dependent ATPase activity was calculated from the net absorbance change in the presence and absence of inhibition.

[2] = system: HCMV (strain AD169); assay: Inhibition of HCMV replication, plaque reduction assay (PRA, Hs-68 cells); format: cell-based, human cytomegalovirus; conditions: Group 1 Table 1, read-out: PRA CMV EC50
Method: (§1) C) Inhibition of Human Cytomegalovirus (HCMV) replication
(§2) The effect of compounds on the replication of HCMV has been measured by using an ELISA-based assay (ELISA) and a plaque reduction assay (PRA).
(§3) Hs-68 cells ( ATCC # CRL 1635) were seeded in 12-well plates at 83,000 cells/well in 1 mL of DMEM medium (Gibco Canada Inc.) supplemented with 10% fetal bovine serum (FBS, Gibco Canada Inc.). The plates were incubated for 3 days at 37° to allow the cells to reach 80-90% confluency prior to the assay.
The medium was removed from the cells by aspiration. The cells were then infected with approximately 50 PFU of HCMV (strain AD169, ATCC VR-538) in DMEM medium supplemented with 5% inactivated FBS (assay medium). The virus was allowed to adsorb to cells for 2 h at 37°. Following viral adsorption, the medium was removed from the wells by aspiration. The cells were then incubated with or without 1 mL of appropriate concentrations of test reagent in assay medium. After 4 days of incubation at 37°, the medium was exchanged with fresh medium containing test compound and 4 days later the cells were fixed with 1% aqueous formaldehyde and stained with a 2% crystal violet solution in 20% ethanol in water. Microscopic plaques were counted using a stereomicroscope. Drug effects were calculated as a percent reduction in the number of plaques in the presence of each drug concentration compared to the number observed in the absence of drug. Ganciclovir was used as a positive control in all experiments.
The EC50 values obtained according to this assay for certain thiazolyl derivatives of this invention are listed in the following tables under the heading PRA CMV.

[3] = system: HCMV (strain AD169); assay: Inhibition of HCMV replication, ELISA assay (Hs-68 cells, p28); format: cell-based, human cytomegalovirus; conditions: Human betaherpesvirus 5, AD169, Hs68; Group 1 Table 1; read-out: ELISA CMV EC50
Method: as §1, §2
as §3, with “(ATCC” for “( ATCC”, “96 well microtiter” for “12-well”, “10,000” for “83,000”, “100 μL” for “1 mL”
The medium was removed from wells by aspiration. The cells then were infected at a multiplicity of infection (MOI) of 0.01 PFU/cell with 50 μL of HCMV (strain AD169, ATCC VR-538) in DMEM medium supplemented with 5% heat inactivated FBS (assay medium). The virus was allowed to adsorb to cells for 2 h at 37°. Following viral adsorption, the medium was removed from the wells by aspiration. The cells were washed twice with 200 μL of assay medium to remove unabsorbed virus. The cells were then incubated with or without 100 μL of appropriate concentrations of test reagent in assay medium. After 8 days of incubation at 37°, the extent of viral replication was determined by an ELISA assay which detects the late structural protein p28 of HCMV.
Eight days after infection, the medium was aspirated from the wells. Non-specific binding sites were blocked by adding 200 μL of phosphate buffered saline containing 1% (w/v) bovine serum albumin (blocking buffer) to each well and incubating the plates for 30 min at room temperature. After removal of the blocking buffer by aspiration, the cells were fixed with 100 μL of cold ethanol-acetone solution (95:5) per well. The plates were placed at −20° for 30 min. The plates were washed 4 times with phosphate buffered saline containing 0.05% (v/v) polyoxyethylene sorbitan monolaurate (Tween 20®). Thereafter, 100 μL of mAb UL99 (Advanced Biotechnologies Inc., #13-130-100) recognizing HCMV protein p28 was added to each wells and plates were incubated for 2 h at room temperature. The plates were washed four times with 200 μL of the above-noted phosphate buffered saline/Tween-20® solution. The cells were then incubated with 100 μL of sheep anti-mouse IgGγ horseradish peroxidase conjugated for 2 h at room temperature. The plates were then washed four times with 200 μL of above-noted phosphate buffered saline/Tween-20®solution. Thereafter, 100 μL of ortho phenylenediamine dihydrochloride (OPD, Gibco Canada Inc.) solution was added to each well and the plates were agitated on a microplate shaker for 30 min in the dark. Color development was monitored at 450 nm using a microplate spectrophotometer.
The SAS program was used to calculate the % inhibition of viral replication and to generate EC50 values.
The EC50 values obtained according to this assay method for certain thiazolylphenyl derivatives of this invention are listed in the following tables under the heading ELISA CMV.

[4] = Human betaherpesvirus 5, AD169, Hs68

Compound	IC50 [1] [µM]	EC50 [2, 4] [µM]	EC50 [3] [µM]	also measured
Nc1nc(-c2ccc(NC(=O)CN(CC3CCCCC3)C(=O)C3CCNCC3)cc2)cs1 [Example 62]	–	–	–	inhibition of HSV-1 helicase-primase ([1]; at 50 μM): 29% inhi- bition at 50 μM
CC(c1ccccc1)N(CC(=O)Nc1ccc(-c2csc(N)n2)cc1)C(=O)Cc1ccccn1 (stereo not shown) [Example 136]	4.2	–	–	EC50 [2]: 31 µM
Nc1nc(-c2ccc(NC(=O)CN(Cc3ccccc3F)C(=O)c3ccncc3)cc2)cs1 [Example 118]	0.047	60	–	–
Nc1nc(-c2ccc(NC(=O)[C@H]3CCC(=O)N3Cc3ccccc3)cc2)cs1 [Example 12, N-{4-(2-Amino-4-thiazolyl)phenyl}-5-oxo-1-(phenylmethyl)-2(R)-pyrrolidinecarboxamide]	–	–	–	melting point: 245 to 246 °C
Nc1nc(-c2ccc(NC(=O)CNCC3CCCCC3)cc2)cs1 [Example 3, N-{4-(2-Amino-4-thiazolyl)phenyl}-2-{(cyclohexyl-methyl)amino}acetamide]	–	–	–	melting point: 164 to 166 °C
Nc1nc(-c2ccc(NC(=O)CN(Cc3ccccc3)S(=O)(=O)N3CCOCC3)cc2)cs1 [Example 7, N-{4-(2-Amino-4-thiazolyl)phenyl}-2-{(4-morpholinylsulfonyl)(phenylmethyl)amino}acetamide]	–	–	–	melting point: 193 to 194 °C
Nc1nc(-c2ccc(NC(=O)CN(CCc3ccccc3)C(=O)C3CCCCC3)cc2)cs1 [Example 68]	0.18	–	> 5	–
C[C@@H](C1CCCCC1)N(CC(=O)Nc1ccc(-c2csc(N)n2)cc1)C(=O)OC(C)(C)C [Example 108]	0.46	–	–	–
Nc1nc(-c2ccc(NC(=O)[C@@H]3CCCN3Cc3ccccc3)cc2)cs1 [Example 15, N-{4-(2-Amino-4-thiazolyl)phenyl}-1-(phenylmethyl)-2(S)-pyrrolidinecarboxamide]	–	–	–	melting point: 207 to 209 °C
CC(C)CN(CC(=O)Nc1ccc(-c2csc(N)n2)cc1)C(=O)C1CCCCC1 [Example 81]	0.48	–	14	–
Nc1nc(-c2ccc(NC(=O)CCNCc3ccccc3)cc2)cs1 [Example 8, N-{4-(2-Amino-4-thiazolyl)phenyl}-3-{(phenylmethyl)-amino}propanamide]	–	–	–	melting point: 131 to 133 °C
Cc1cc(C)nc(SCC(=O)N(CC(=O)Nc2ccc(-c3csc(N)n3)cc2)Cc2ccccc2)n1 [Example 122]	–	–	–	EC50 [2]: 3.3 µM
Cc1cccc(C)c1OCC(=O)N(CC(=O)Nc1ccc(-c2csc(N)n2)cc1)Cc1ccccc1 [Example 121]	0.49	–	–	EC50 [2]: > 31 µM
Nc1nc(-c2ccc(NC(=O)CN(Cc3ccccc3)C(=O)Cc3ccncc3)cc2)cs1 [Example 114]	0.8	23	–	–
C[C@@H](c1ccccc1)N(CC(=O)Nc1ccc(-c2csc(N)n2)cc1)C(=O)Cc1ccccn1 [Example 135]	0.78	38	–	–
[N-]=[N+]=Nc1ccc(C(=O)N(CC(=O)Nc2ccc(-c3csc(N)n3)cc2)Cc2ccncc2)cc1 [Example 78]	1	–	–	–
Nc1nc(-c2ccc(NC(=O)CN(Cc3ccc(Cl)cc3)C(=O)CC3CCCCC3)cc2)cs1 [Example 69]	0.43	8	–	–

Compound	IC50 [1] [µM]	EC50 [2, 4] [µM]	EC50 [3] [µM]	also measured
CN1CCC(C(=O)N(CC(=O)Nc2ccc(-c3csc(N)n3)cc2)CC2CCCCC2)CC1 [Example 138]	> 50	–	31.6	–
Cc1ccccc1CN(CC(=O)Nc1ccc(-c2csc(N)n2)cc1)C(=O)c1ccncc1 [Example 102]	0.19	18	11	–
Nc1nc(-c2ccc(NC(=O)CN(Cc3ccccc3)S(=O)(=O)N3CCOCC3)cc2)cs1 [Example 96]	0.29	12	0.35	–
Nc1nc(-c2ccc(NC(=O)CN(CC3CCCCC3)C(=O)CC3CCCC3)cc2)cs1 [Example 75]	0.21	–	48	–
CC(c1ccccc1)N(CC(=O)Nc1ccc(-c2csc(N)n2)cc1)C(=O)c1ccncc1 (stereo not shown) [Example 137]	0.98	–	–	EC50 [2]: 49 µM
CC(C)COC(=O)N(CC(=O)Nc1ccc(-c2csc(N)n2)cc1)Cc1ccccc1 [Example 86]	0.17	24	3.8	–
Nc1nc(-c2ccc(NC(=O)CN(CC3CCCCC3)C(=O)c3ccncc3)cc2)cs1 [Example 57]	3.9	15.8	2.6	–
Nc1nc(-c2ccc(NC(=O)CN(Cc3ccccc3)C(=O)N3CCOCC3)cc2)cs1 [Example 95]	0.14	90	57	–
CC(C)CN(CC(=O)Nc1ccc(-c2csc(N)n2)cc1)C(=O)OC(C)(C)C [Example 112]	1.8	–	–	–
CC(C)(C)OC(=O)N(CC(=O)Nc1ccc(-c2csc(N)n2)cc1)CC1CCCCC1 [Example 100]	0.76	–	14	–
Nc1nc(-c2ccc(NC(=O)CN(Cc3ccc(F)cc3)C(=O)C3CCCCC3)cc2)cs1 [Example 83]	0.042	–	8.1	–
Nc1nc(-c2ccc(NC(=O)CN(Cc3ccc(Cl)cc3)C(=O)c3ccncc3)cc2)cs1 [Example 55]	0.57	–	11.9	–
CC(C)(C)NC(=O)N(CC(=O)Nc1ccc(-c2csc(N)n2)cc1)Cc1ccccc1 [Example 92]	0.076	65	0.9	–
C[C@@H](c1ccccc1)N(CC(=O)Nc1ccc(-c2csc(N)n2)cc1)C(=O)NC(C)(C)C [Example 105]	0.7	–	11	–
CC(c1ccccc1)N(CC(=O)Nc1ccc(-c2csc(N)n2)cc1)C(=O)c1cccnc1 (stereo not shown) [Example 134]	0.26	–	–	EC50 [2]: 18 µM
CC(C)(C)OC(=O)N1CCC(C(=O)N(CC(=O)Nc2ccc(-c3csc(N)n3)cc2)CC2CCCCC2)CC1 [Example 61]	4.4	–	–	–
CN(C(=O)N(CC(=O)Nc1ccc(-c2csc(N)n2)cc1)Cc1ccccc1)C(C)(C)C [Example 94]	0.026	> 24	> 8	–
